This passage reports inhibition results from PubChem BioAssay AID624041 (The Scripps Research Institute Molecular Screening Center, 2012).

Assay [1] in a line: in vivo ABHD6 inhibition in mouse liver, late-stage follow-up, in vivo study for DAGLb inhibitor project, competitive gel-based ABPP, fluorescence (AID 624041). The following applies: in vivo dosing, anti-target, probe FP-Rh, stronger effect = higher value.
In assay [2] the target is Monoacylglycerol lipase ABHD6 (Mus musculus) (UniProt Q8R2Y0). The description is as above. The following applies: in vivo dosing.

Active and inactive are the calls of the source. No rule for the calls is given here.

Sequence of Monoacylglycerol lipase ABHD6 (Mus musculus) (Q8R2Y0 whole entry, looked up): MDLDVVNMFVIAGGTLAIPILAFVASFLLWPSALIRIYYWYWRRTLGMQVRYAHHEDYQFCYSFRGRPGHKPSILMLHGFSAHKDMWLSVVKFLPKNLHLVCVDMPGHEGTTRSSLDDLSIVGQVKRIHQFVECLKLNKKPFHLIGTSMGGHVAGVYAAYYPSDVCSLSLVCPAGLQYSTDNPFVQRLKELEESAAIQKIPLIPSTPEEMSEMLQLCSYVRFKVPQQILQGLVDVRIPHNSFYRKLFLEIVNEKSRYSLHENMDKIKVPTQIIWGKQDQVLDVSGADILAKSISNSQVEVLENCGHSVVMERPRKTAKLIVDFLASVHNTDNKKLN

As to `COc1ccc(-c2ccc(-c3cn(C(=O)N4CCCCC4c4ccccc4)nn3)cc2)cc1` (stereo not drawn), the inhibition (commonly the change of the read-out against control, counted positive when it falls) in assay [1] (65 kDa SH, dose or concentration not given here) is 70% (inactive); in assay [1] (65 kDa SH, inhibition at 5 mg/kg) it was 5%; in assay [1] (72 kDa SH, dose or concentration not given here), 80% (inactive); in assay [1] (72 kDa SH, inhibition at 5 mg/kg), 20%; in assay [2] (probe FP-Rh, stronger effect = higher value, dose or concentration not given here) it was 95%; in assay [2] (probe FP-Rh, inhibition at 5 mg/kg, stronger effect = higher value) it was 98%. For the same compound, the inhibition in assay [2] (probe HT-01, stronger effect = higher value, dose or concentration not given here) was 90%; in assay [2] (probe HT-01, inhibition at 5 mg/kg, stronger effect = higher value), 90%.
